Assay results as given in PubChem BioAssay (NCI).
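Cells were grown in 96-well plates and exposed to each compound for 48 hours at five concentrations; endpoints were interpolated linearly between bracketing concentrations, or set to the highest concentration if not reached. The concentration for full growth arrest is given as TGI.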

Key:
Experiment in all cases: NCI anticancer screen, dose series, 48 h
NCI-H23 lung = system: NCI-H23 lung
T-47D breast = system: T-47D breast
MDA-MB-231 breast = system: MDA-MB-231 breast
UO-31 renal = system: UO-31 renal
HCT-15 colon = system: HCT-15 colon
DU-145 prostate = system: DU-145 prostate
SK-MEL-2 melanoma = system: SK-MEL-2 melanoma
OVCAR-8 ovarian = system: OVCAR-8 ovarian
HOP-92 NSCLC = system: HOP-92 NSCLC
SF-295 CNS = system: SF-295 CNS
NCI-H522 lung = system: NCI-H522 lung
SNB-75 CNS = system: SNB-75 CNS
SF-268 CNS = system: SF-268 CNS
786-0 renal = system: 786-0 renal
SN12C renal = system: SN12C renal
MDA-MB-435 = system: MDA-MB-435
KM12 colon = system: KM12 colon
SK-MEL-28 melanoma = system: SK-MEL-28 melanoma
OVCAR-5 ovarian = system: OVCAR-5 ovarian
CCRF-CEM leukemia = system: CCRF-CEM leukemia
MCF7 breast = system: MCF7 breast
OVCAR-3 ovarian = system: OVCAR-3 ovarian
OVCAR-4 ovarian = system: OVCAR-4 ovarian
EKVX NSCLC = system: EKVX NSCLC
SNB-19 CNS = system: SNB-19 CNS
UACC-62 melanoma = system: UACC-62 melanoma
HCT-116 colon = system: HCT-116 colon
SK-MEL-5 melanoma = system: SK-MEL-5 melanoma
HL-60(TB) leukemia = system: HL-60(TB) leukemia
RPMI-8226 leukemia = system: RPMI-8226 leukemia
A498 renal = system: A498 renal
SW-620 colon = system: SW-620 colon
NCI-H226 lung = system: NCI-H226 lung
U251 CNS = system: U251 CNS
IGROV1 ovarian = system: IGROV1 ovarian
MOLT-4 leukemia = system: MOLT-4 leukemia
LOX IMVI melanoma = system: LOX IMVI melanoma
MALME-3M melanoma = system: MALME-3M melanoma
HCC-2998 colon = system: HCC-2998 colon
HT29 colon = system: HT29 colon
SK-OV-3 ovarian = system: SK-OV-3 ovarian
BT-549 breast = system: BT-549 breast
A549 NSCLC = system: A549 NSCLC
NCI/ADR-RES ovarian = system: NCI/ADR-RES ovarian
K-562 leukemia = system: K-562 leukemia
COLO 205 colon = system: COLO 205 colon
CAKI-1 renal = system: CAKI-1 renal
NCI-H460 lung = system: NCI-H460 lung
HS 578T breast = system: HS 578T breast
PC-3 prostate = system: PC-3 prostate
SF-539 CNS = system: SF-539 CNS
UACC-257 melanoma = system: UACC-257 melanoma
TK-10 renal = system: TK-10 renal
ACHN renal = system: ACHN renal
MDA-N = system: MDA-N
M14 melanoma = system: M14 melanoma
HOP-62 NSCLC = system: HOP-62 NSCLC
RXF 393 renal = system: RXF 393 renal

OCc1cc2c([nH]c3ccccc32)c(C(O)CO)n1 (stereo unspecified)
TGI (NCI-H23 lung): > 100 µM | TGI (T-47D breast): > 100 µM | TGI (MDA-MB-231 breast): > 100 µM | TGI (UO-31 renal): > 100 µM | TGI (HCT-15 colon): > 100 µM | TGI (DU-145 prostate): > 100 µM | TGI (SK-MEL-2 melanoma): > 100 µM | TGI (OVCAR-8 ovarian): > 100 µM | TGI (HOP-92 NSCLC): > 100 µM | TGI (SF-295 CNS): > 100 µM | TGI (NCI-H522 lung): > 100 µM | TGI (SNB-75 CNS): > 100 µM | TGI (SF-268 CNS): > 100 µM | TGI (786-0 renal): > 100 µM | TGI (SN12C renal): > 100 µM | TGI (MDA-MB-435): > 100 µM | TGI (KM12 colon): > 100 µM | TGI (SK-MEL-28 melanoma): > 100 µM | TGI (OVCAR-5 ovarian): > 100 µM | TGI (CCRF-CEM leukemia): > 100 µM | TGI (MCF7 breast): > 100 µM | TGI (OVCAR-3 ovarian): > 100 µM | TGI (OVCAR-4 ovarian): > 100 µM | TGI (EKVX NSCLC): > 100 µM | TGI (SNB-19 CNS): > 100 µM | TGI (UACC-62 melanoma): > 100 µM | TGI (HCT-116 colon): > 100 µM | TGI (SK-MEL-5 melanoma): > 100 µM | TGI (HL-60(TB) leukemia): > 100 µM | TGI (RPMI-8226 leukemia): > 100 µM | TGI (A498 renal): > 100 µM | TGI (SW-620 colon): > 100 µM | TGI (NCI-H226 lung): > 100 µM | TGI (U251 CNS): > 100 µM | TGI (IGROV1 ovarian): > 100 µM | TGI (MOLT-4 leukemia): > 100 µM | TGI (LOX IMVI melanoma): > 100 µM | TGI (MALME-3M melanoma): > 100 µM | TGI (HCC-2998 colon): > 100 µM | TGI (HT29 colon): > 100 µM | TGI (SK-OV-3 ovarian): > 100 µM | TGI (BT-549 breast): > 100 µM | TGI (A549 NSCLC): > 100 µM | TGI (NCI/ADR-RES ovarian): > 100 µM | TGI (K-562 leukemia): > 100 µM | TGI (COLO 205 colon): > 100 µM | TGI (CAKI-1 renal): > 100 µM | TGI (NCI-H460 lung): > 100 µM | TGI (HS 578T breast): > 100 µM | TGI (PC-3 prostate): > 100 µM | TGI (SF-539 CNS): > 100 µM | TGI (UACC-257 melanoma): > 100 µM | TGI (TK-10 renal): > 100 µM | TGI (ACHN renal): > 100 µM | TGI (MDA-N): > 100 µM | TGI (M14 melanoma): > 100 µM

Clc1ccc(N=C2c3ccccc3CN2c2ccc(Cl)cc2)cc1
TGI (NCI-H23 lung): > 100 µM | TGI (T-47D breast): 94 µM | TGI (MDA-MB-231 breast): > 100 µM | TGI (UO-31 renal): > 100 µM | TGI (HCT-15 colon): > 100 µM | TGI (DU-145 prostate): > 100 µM | TGI (SK-MEL-2 melanoma): > 100 µM | TGI (OVCAR-8 ovarian): > 100 µM | TGI (HOP-62 NSCLC): > 100 µM | TGI (HOP-92 NSCLC): > 100 µM | TGI (SF-295 CNS): > 100 µM | TGI (NCI-H522 lung): > 100 µM | TGI (SNB-75 CNS): > 100 µM | TGI (SF-268 CNS): > 100 µM | TGI (786-0 renal): > 100 µM | TGI (SN12C renal): > 100 µM | TGI (MDA-MB-435): > 100 µM | TGI (KM12 colon): > 100 µM | TGI (SK-MEL-28 melanoma): > 100 µM | TGI (OVCAR-5 ovarian): > 100 µM | TGI (MCF7 breast): > 100 µM | TGI (OVCAR-3 ovarian): > 100 µM | TGI (OVCAR-4 ovarian): > 100 µM | TGI (EKVX NSCLC): > 100 µM | TGI (SNB-19 CNS): > 100 µM | TGI (UACC-62 melanoma): > 100 µM | TGI (HCT-116 colon): > 100 µM | TGI (SK-MEL-5 melanoma): > 100 µM | TGI (RXF 393 renal): > 100 µM | TGI (RPMI-8226 leukemia): > 100 µM | TGI (A498 renal): > 100 µM | TGI (SW-620 colon): > 100 µM | TGI (NCI-H226 lung): > 100 µM | TGI (U251 CNS): > 100 µM | TGI (IGROV1 ovarian): > 100 µM | TGI (MOLT-4 leukemia): > 100 µM | TGI (LOX IMVI melanoma): > 100 µM | TGI (HCC-2998 colon): > 100 µM | TGI (HT29 colon): > 100 µM | TGI (SK-OV-3 ovarian): > 100 µM | TGI (BT-549 breast): > 100 µM | TGI (A549 NSCLC): > 100 µM | TGI (NCI/ADR-RES ovarian): > 100 µM | TGI (K-562 leukemia): > 100 µM | TGI (COLO 205 colon): > 100 µM | TGI (CAKI-1 renal): > 100 µM | TGI (NCI-H460 lung): > 100 µM | TGI (HS 578T breast): > 100 µM | TGI (PC-3 prostate): > 100 µM | TGI (SF-539 CNS): > 100 µM | TGI (UACC-257 melanoma): > 100 µM | TGI (TK-10 renal): > 100 µM | TGI (ACHN renal): > 100 µM | TGI (MDA-N): > 100 µM | TGI (M14 melanoma): > 100 µM
